For orientation: IC50 means the concentration that gives 50% inhibition.

The first experiment deals with T1, Chk1 (Homo sapiens, UniProt O14757).
T1 construct: purchased Upstate Biotechnology
T1 sequence (O14757 1-476): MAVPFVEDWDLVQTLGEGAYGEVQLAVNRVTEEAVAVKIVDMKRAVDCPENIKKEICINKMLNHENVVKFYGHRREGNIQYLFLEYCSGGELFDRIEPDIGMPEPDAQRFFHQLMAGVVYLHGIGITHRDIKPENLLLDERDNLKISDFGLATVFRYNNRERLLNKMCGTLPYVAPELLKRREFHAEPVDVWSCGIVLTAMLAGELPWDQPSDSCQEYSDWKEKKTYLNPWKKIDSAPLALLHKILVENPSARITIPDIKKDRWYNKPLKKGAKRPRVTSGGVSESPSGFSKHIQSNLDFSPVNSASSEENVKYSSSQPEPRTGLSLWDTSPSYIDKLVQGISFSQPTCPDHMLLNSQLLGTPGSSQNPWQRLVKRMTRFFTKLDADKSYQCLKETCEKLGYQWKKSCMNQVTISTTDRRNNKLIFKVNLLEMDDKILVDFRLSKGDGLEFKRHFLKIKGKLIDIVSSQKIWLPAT
Kind of experiment: Chk1 kinase assay: incorporation of γ-33P ATP into immobilized myelin basic protein. Particulars: Table 11, Chk1 only; class symbols A-D; read-out: Chk1 IC50. In kind it is biochemical. The method in brief:
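Enzyme activity is measured as γ-33P transfer from ATP onto immobilized MBP over 1 h at room temperature, with Chk1 at 10 nM/10 μM unlabeled ATP and Chk2 at 20 nM/30 μM unlabeled ATP. Compounds are tested in 1% DMSO.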
Consider `Nc1ncc(-c2cccc(C(=O)NCc3ccc(Cl)c(C(F)(F)F)c3)c2)nc1C(=O)N[C@H]1CCCNC1` [Example 1005, 3-amino-6-{3-[({[4-chloro-3-(trifluoromethyl)phenyl]methyl}amino)carbonyl]phenyl}-N-[(3S)-piperidin-3-yl]pyrazine-2-carboxamide], for which the concentration for half-maximal inhibition (IC50) is less than 50 nM. With `Nc1ncc(-c2cccc(C(=O)NCc3ccc(F)c(C(F)(F)F)c3)c2)nc1C(=O)N[C@H]1CCCNC1` [Example 850, 3-amino-6-{3-[({[4-fluoro-3-(trifluoromethyl)phenyl]methyl}amino)carbonyl]phenyl}-N-[(3S)-piperidin-3-yl]pyrazine-2-carboxamide], the IC50 is less than 50 nM. On the same count and under the same terms, in the case of `Nc1ncc(-c2cccc(C(=O)NCc3ccc(Cl)cc3Cl)c2)nc1C(=O)N[C@H]1CCCNC1` [Example 832, 3-amino-6-[3-({[(2,4-dichlorophenyl)methyl]amino}carbonyl)phenyl]-N-[(3S)-piperidin-3-yl]pyrazine-2-carboxamide] it was less than 50 nM; in that of `Nc1ncc(-c2cccc(CNC(=O)Nc3ccc(-c4ccccc4)cc3)c2)nc1C(=O)N[C@H]1CCCNC1` [Example 908, 3-amino-6-[3-({[(biphenyl-4-ylamino)carbonyl]amino}methyl)phenyl]-N-[(3S)-piperidin-3-yl]pyrazine-2-carboxamide], less than 50 nM; in that of `Nc1ncc(-c2cccc(NC(=O)Cc3cccnc3)c2)nc1C(=O)N[C@H]1CCCNC1` [Example 980, 3-amino-N-[(3S)-piperidin-3-yl]-6-{3-[(pyridin-3-ylacetyl)amino]phenyl}pyrazine-2-carboxamide], less than 50 nM. The same measure, in the same setting: the same measure for `Nc1ncc(-c2cccc(C(=O)NCc3cc(Cl)ccc3Cl)c2)nc1-c1nc([C@H]2CCCNC2)n[nH]1` [Example 829, 3-(5-amino-6-{3-[(3S)-piperidin-3-yl]-1H-1,2,4-triazol-5-yl}pyrazin-2-yl)-N-[(2,5-dichlorophenyl)methyl]benzamide]: 50 to 1000 nM; for `Nc1ncc(-c2cccc(C(=O)NC[C@H]3CCCN3)c2)nc1C(=O)N[C@H]1CCCNC1` [Example 927, 3-amino-N-[(3S)-piperidin-3-yl]-6-[3-({[(2R)-pyrrolidin-2-ylmethyl]amino}carbonyl)phenyl]pyrazine-2-carboxamide]: less than 50 nM; for `Cc1cc(Cl)cc(Cl)c1CNC(=O)c1cccc(-c2cnc(N)c(C(=O)N[C@H]3CCCNC3)n2)c1` [Example 951, 3-amino-6-[3-({[(2,4-dichloro-6-methylphenyl)methyl]amino}carbonyl)phenyl]-N-[(3S)-piperidin-3-yl]pyrazine-2-carboxamide]: less than 50 nM.

Staying with this experiment, now noted: Table 11; Chk1 only; read-out: Chk1 IC50.
As for `CNC(=O)c1cc(-c2cccc(CNC3CCc4c(F)ccc(Br)c43)c2)cnc1N` (stereo not shown) [Example 521, 2-amino-5-(3-{[(7-bromo-4-fluoro-2,3-dihydro-1H-inden-1-yl)amino]methyl}phenyl)-N-methylpyridine-3-carboxamide], the IC50 lay in the range of 1000 to 10000 nM.

Regarding `Nc1ncc(-c2cccc(C3=N[C@@H]4c5ccccc5C[C@@H]4O3)c2)nc1C(=O)NC1CCCNCC1` (stereo partly drawn) [Example 783, 3-amino-N-azepan-4-yl-6-{3-[(3aR,8aS)-8,8a-dihydro-3aH-indeno[1,2-d][1,3]oxazol-2-yl]phenyl}pyrazine-2-carboxamide], the IC50 is 50 to 1000 nM. On the same count and under the same terms, the same measure for `CC(C)(C)OC(=O)N1CCCC(NC(=O)c2nc(-c3cccc(C(=O)N[C@H]4CCc5ccccc54)c3)cnc2N)CC1` (stereo partly drawn) [Example 770, 1,1-dimethylethyl 4-({[3-amino-6-(3-{[(1S)-2,3-dihydro-1H-inden-1-ylamino]carbonyl}phenyl)pyrazin-2-yl]carbonyl}amino)azepane-1-carboxylate]: no less than 10000 nM; for `CC(C)(C)OC(=O)N1CC[C@H](NC(=O)c2nc(-c3cccc(C(=O)NCc4ccc(OC(F)(F)F)cc4)c3)cnc2N)C1` [Example 739, 1,1-dimethylethyl (3S)-3-({[3-amino-6-(3-{[({4-[(trifluoromethyl)oxy]phenyl}methyl)amino]carbonyl}phenyl)pyrazin-2-yl]carbonyl}amino)pyrrolidine-1-carboxylate]: 50 to 1000 nM; for `CC(C)(C)OC(=O)N1CCCC(NC(=O)c2nc(-c3cccc(C(=O)N[C@@H]4c5ccccc5C[C@@H]4O)c3)cnc2N)CC1` (stereo partly drawn) [Example 781, 1,1-dimethylethyl 4-[({3-amino-6-[3-({[(1R,2S)-2-hydroxy-2,3-dihydro-1H-inden-1-yl]amino}carbonyl)phenyl]pyrazin-2-yl}carbonyl)amino]azepane-1-carboxylate]: 50 to 1000 nM. For `Nc1ncc(-c2cccc(CN[C@H]3CCc4ccccc43)c2)nc1C(=O)NCCc1c[nH]cn1` [Example 558, 3-amino-6-(3-{[(1S)-2,3-dihydro-1H-inden-1-ylamino]methyl}phenyl)-N-[2-(1H-imidazol-4-yl)ethyl]pyrazine-2-carboxamide], the IC50 was less than 50 nM.

Staying with this experiment, now noted: read-out: Chk1 IC50.
Consider `CNC(=O)c1nc(-c2cccc(C(=O)N[C@H]3CCc4ccccc43)c2)cnc1N` [Example 97, 3-amino-6-(3-{[(1S)-2,3-dihydro-1H-inden-1-ylamino]carbonyl}phenyl)-N-methylpyrazine-2-carboxamide], for which the half-inhibitory concentration (IC50) fell in the range of 50 to 1000 nM. The same measure, in the same setting: the same measure for `CNC(=O)c1nc(-c2cccc(CNC(=O)CSc3ccc(N)cc3)c2)cnc1N` [Example 347, 3-amino-6-{3-[({[(4-aminophenyl)thio]acetyl}amino)methyl]phenyl}-N-methylpyrazine-2-carboxamide]: 50 to 1000 nM; for `CNC(=O)c1nc(-c2cccc(C(=O)NCc3cc(F)cc(F)c3)c2)cnc1N` [Example 339, 3-amino-6-[3-({[(3,5-difluorophenyl)methyl]amino}carbonyl)phenyl]-N-methylpyrazine-2-carboxamide]: less than 50 nM; for `CNC(=O)c1nc(-c2cccc(C(=O)NCc3ccc(Cl)cc3C)c2)cnc1N` [Example 245, 3-amino-6-[3-({[(4-chloro-2-methylphenyl)methyl]amino}carbonyl)phenyl]-N-methylpyrazine-2-carboxamide]: 50 to 1000 nM. Still for that read-out and setting: in the case of `CNC(=O)c1nc(-c2cccc(C(=O)NCC3CCN(Cc4ccccc4)CC3)c2)cnc1N` [Example 200, 3-amino-N-methyl-6-{3-[({[1-(phenylmethyl)piperidin-4-yl]methyl}amino)carbonyl]phenyl}pyrazine-2-carboxamide] it was no less than 10000 nM. Still for that read-out and setting: in the case of `CNC(=O)c1nc(-c2cccc(C(=O)NCc3cccc(C)c3C)c2)cnc1N` [Example 243, 3-amino-6-[3-({[(2,3-dimethylphenyl)methyl]amino}carbonyl)phenyl]-N-methylpyrazine-2-carboxamide] it was 50 to 1000 nM; in that of `CNC(=O)c1nc(-c2cccc(C(=O)NCc3ccccc3C)c2)cnc1N` [Example 285, 3-amino-N-methyl-6-[3-({[(2-methylphenyl)methyl]amino}carbonyl)phenyl]pyrazine-2-carboxamide], 50 to 1000 nM; in that of `CNC(=O)c1nc(-c2cccc(CNC(=O)c3ccc(-c4ccccc4)cc3)c2)cnc1N` [Example 332, 3-amino-6-(3-{[(biphenyl-4-ylcarbonyl)amino]methyl}phenyl)-N-methylpyrazine-2-carboxamide], less than 50 nM.

The values above are taken from patent US7704995B2 (Exelixis, Inc., priority 2003, dated 2010).
